According to ChEMBL document CHEMBL1201862, “PubChem BioAssay data set” (2004):
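1) Cells in 96-well plates. 2) Compound, 48 h, 5 concentrations. 3) Linear interpolation between surrounding doses. 4) Unreached endpoint = highest concentration. Abbreviation: GI50, concentration required for 50% inhibition of growth.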 Active and inactive are the calls of the source. Cut-off read from the data, not from the text of the source: active = GI50 up to about 1.1 µM and inactive = higher.

What was measured:
Experiment in all cases: inhibition of tumour cell growth, NCI panel, 48 h
[1] = test system: UACC-62
[2] = test system: NCI-H23
[3] = test system: K562
[4] = test system: Hs-578T
[5] = test system: HOP-62
[6] = test system: SF-295
[7] = test system: OVCAR-4
[8] = test system: MCF7
[9] = test system: OVCAR-3
[10] = test system: EKVX
[11] = test system: NCI-H522
[12] = test system: SK-MEL-28
[13] = test system: HCT-116
[14] = test system: NCI/ADR-RES
[15] = test system: KM12
[16] = test system: 786-0
[17] = test system: PC-3
[18] = test system: HT-29
[19] = test system: TK-10

Measured: GI50

O=C1C(c2c(O)[nH]c3ccc(I)cc23)=Nc2ccccc21
inactive: [1] 4.66 µM | [2] 5.61 µM | [3] 9.66 µM | [4] 6.78 µM | [5] 4.7 µM | [6] 4.88 µM | [7] 4.06 µM | [8] 4.07 µM | [9] 5.71 µM | [10] 4.67 µM | [11] 4.2 µM | [12] 11.2 µM | [13] 1.67 µM | [14] 6 µM | [15] 5.24 µM | [16] 2.02 µM | [17] 2.94 µM | [18] 7.1 µM | [19] 4.54 µM

CC(=O)OCc1ccc2oc(=O)c(C(=O)Oc3cccc(Cl)c3)cc2c1
inactive: [1] 17.4 µM | [2] 74.6 µM | [3] 23.9 µM | [4] > 100 µM | [5] 99.1 µM | [6] > 100 µM | [7] > 100 µM | [8] 26.2 µM | [9] > 100 µM | [10] > 100 µM | [11] > 100 µM | [12] 83 µM | [13] 21.2 µM | [14] > 100 µM | [15] 61.5 µM | [16] 36.1 µM | [17] 19.1 µM | [18] 27.5 µM | [19] 31.5 µM

COc1ccc(C(F)(F)F)cc1NC(=O)O/N=C(/Cl)C(C)C
inactive: [1] 18.5 µM | [2] 19.7 µM | [3] 1.91 µM | [4] 30.4 µM | [5] 21.6 µM | [6] > 47.1 µM | [7] 19.1 µM | [8] 21.2 µM | [9] 19.3 µM | [10] 17.7 µM | [11] 2.26 µM | [12] 21.4 µM | [13] 16.4 µM | [14] 23.6 µM | [15] 26.3 µM | [16] 16.9 µM | [17] 18.8 µM | [18] 23.9 µM | [19] 15.1 µM

c1ccc(C(CCN2CC3CCC(CC3)C2)c2ccccc2)cc1
inactive: [1] 17.1 µM | [2] 18 µM | [3] 18.4 µM | [4] 24 µM | [5] 27.5 µM | [6] 26 µM | [7] 38.7 µM | [8] 15.6 µM | [9] 20.2 µM | [10] 37.8 µM | [11] 16.6 µM | [12] 41.1 µM | [13] 20.1 µM | [14] 23.8 µM | [15] 23.9 µM | [16] 17.3 µM | [17] 31.5 µM | [18] 13.9 µM | [19] 23.1 µM

COc1cc(/C=C2/C[C@H]3[C@@H]4CC=C5C[C@@H](OC(C)=O)CC[C@]5(C)[C@H]4CC[C@]3(C)NC2=O)cc(OC)c1OC
inactive: [1] 19.8 µM | [2] 23.9 µM | [3] 45.3 µM | [4] 24.2 µM | [5] 26.6 µM | [6] 26.8 µM | [7] 17.4 µM | [8] 25.4 µM | [9] 31.3 µM | [10] 26.6 µM | [11] 24.6 µM | [12] 26.2 µM | [13] 26.4 µM | [14] 20 µM | [15] 47.4 µM | [16] 17.9 µM | [17] 19 µM | [18] 38.7 µM | [19] 26.5 µM
